Results published in patent publication US9573930B2 (Quanticel Pharmaceuticals, Inc., priority 2014, dated 2017).

Molecular target: full-length human LSD1 (Homo sapiens (Human), UniProt O60341)
Experiment: In vitro enzyme inhibition assay LSD-1 (TR-FRET)
Type: biochemical
Conditions: H3K4me1-biotin peptide
Procedure: This assay determines the ability of a test compound to inhibit LSD1 demethylase activity.
The enzymatic assay of LSD1 activity is based on Time Resolved-Fluorescence Resonance Energy Transfer (TR-FRET) detection.
The ability of the compounds disclosed herein to inhibit LSD1 activity was quantified and the respective IC50 value was determined.

SMILES	IC50
COc1ccc(-c2c(-c3ccc(Cl)c(F)c3)nc(N3CCC(N)CC3)n(C)c2=O)cc1 [Example 111, 2-(4-amino-piperidin-1-yl)-6-(4-chloro-3-fluoro-phenyl)-5-(4-methoxy-phenyl)-3-methyl-3H-pyrimidin-4-one]	100 to 1000 nM
COc1ncc(-c2c(-c3ccc(C#N)c(F)c3)nc(N3CCC(N)CC3)n(C)c2=O)cc1F [Example 26, 4-[2-(4-aminopiperidyl)-5-(5-fluoro-6-methoxy(3-5,6-dihydropyridyl))-1-methyl-6-oxohydropyrimidin-4-yl]-2-fluorobenzenecarbonitrile]	< 100 nM
COc1ccc(-c2c(-c3ccc(C#N)c(F)c3)nc(N(C)C[C@H]3CCNC3)n(C)c2=O)cc1 [Example 54, 2-fluoro-4-[5-(4-methoxy-phenyl)-1-methyl-2-(methyl-(3S)-pyrrolidin-3-ylmethyl-amino)-6-oxo-1,6-dihydro-pyrimidin-4-yl]-benzonitrile]	< 100 nM
Cn1c(N2CCC(N)CC2)nc(-c2ccc(C#N)cc2)c(-c2ccc(OCCO)cc2)c1=O [Example 97, 4-[2-(4-aminopiperidin-1-yl)-5-[4-(2-hydroxyethoxy)phenyl]-1-methyl-6-oxopyrimidin-4-yl]benzonitrile]	< 100 nM
Cn1c(N2CCC(N)CC2)nc(-c2ccccc2)c(-c2ccc3c(ccn3C)c2)c1=O [Example 114, 2-(4-amino-piperidin-1-yl)-3-methyl-5-(1-methyl-1H-indol-5-yl)-6-phenyl-3H-pyrimidin-4-one]	> 10000 nM
Cn1cc2cc(-c3c(-c4ccc(C#N)c(F)c4)nc(N4CCCNCC4)n(C)c3=O)ccc2n1 [Example 66, 4-[2-[1,4]diazepan-1-yl-1-methyl-5-(2-methyl-2H-indazol-5-yl)-6-oxo-1,6-dihydro-pyrimidin-4-yl]-2-fluoro-benzonitrile]	< 100 nM
CCOc1ccc(-c2c(-c3ccc(C#N)c(F)c3)nc(N3CCC(N)CC3)n(C)c2=O)cc1 [Example 95, 4-[2-(4-aminopiperidin-1-yl)-5-(4-ethoxyphenyl)-1-methyl-6-oxopyrimidin-4-yl]-2-fluorobenzonitrile]	< 100 nM
CNC(=O)c1ccc(-c2c(-c3ccc(C#N)c(F)c3)nc(N3CCC(N)CC3)n(C)c2=O)cn1 [Example 50, 5-[2-(4-amino-piperidin-1-yl)-4-(4-cyano-3-fluoro-phenyl)-1-methyl-6-oxo-1,6-dihydro-pyrimidin-5-yl]-pyridine-2-carboxylic acid methylamide]	< 100 nM
COc1ccc(-c2c(-c3ccc(C#N)c(F)c3)nc(N3CCC(N)CC3)[nH]c2=O)cc1 [Example 122, 4-[2-(4-amino-piperidin-1-yl)-5-(4-methoxy-phenyl)-6-oxo-1,6-dihydro-pyrimidin-4-yl]-2-fluoro-benzonitrile]	< 100 nM
Cn1c(N2CCC(N)CC2)nc(-c2ccc(C#N)c(F)c2)c(-c2ccc(C(=O)O)cc2)c1=O [Example 39, 4-[2-(4-aminopiperidyl)-6-(4-cyano-3-fluorophenyl)-3-methyl-4-oxo-3-hydropyrimidin-5-yl]benzoic acid]	100 to 1000 nM
Cn1c(N2CCC(N)CC2)nc(-c2ccc(F)cc2)c(-c2ccc3c(ccn3C)c2)c1=O [Example 113, 2-(4-amino-piperidin-1-yl)-6-(4-fluoro-phenyl)-3-methyl-5-(1-methyl-1H-indol-5-yl)-3H-pyrimidin-4-one]	100 to 1000 nM
N#Cc1ccc(-c2cc(=O)n(CC3CC3)c(N3CCC(N)CC3)n2)cc1F [Example 109, 4-[2-(4-amino-piperidin-1-yl)-1-cyclopropylmethyl-6-oxo-1,6-dihydro-pyrimidin-4-yl]-2-fluoro-benzonitrile]	100 to 1000 nM
COc1ccc(-c2c(-c3ccc(C#N)c(F)c3)nc(N3CCC[C@H](N)C3)n(C)c2=O)cc1F [Example 28, 4-[2-((3S)-3-amino-piperidin-1-yl)-5-(3-fluoro-4-methoxy-phenyl)-1-methyl-6-oxo-1,6-dihydro-pyrimidin-4-yl]-2-fluoro-benzonitrile]	< 100 nM
COc1ccc(-c2c(-c3ccc(C#N)c(F)c3)nc(N3CCC(C)(N)CC3)n(C)c2=O)cc1F [Example 32, 4-[2-(4-amino-4-methyl-piperidin-1-yl)-5-(3-fluoro-4-methoxy-phenyl)-1-methyl-6-oxo-1,6-dihydro-pyrimidin-4-yl]-2-fluoro-benzonitrile]	< 100 nM
COc1ccc(-c2c(-c3cccc(C#N)c3)nc(N3CCC(N)CC3)n(C)c2=O)cc1F [Example 118, 3-[2-(4-aminopiperidin-1-yl)-5-(3-fluoro-4-methoxyphenyl)-1-methyl-6-oxopyrimidin-4-yl]benzonitrile]	> 10000 nM
Cn1c(N2CCC(N)CC2)nc(-c2ccc(C#N)c(F)c2)c(-c2ccc(N3CCCC3)nc2)c1=O [Example 60, 4-[2-(4-amino-piperidin-1-yl)-1-methyl-6-oxo-5-(6-pyrrolidin-1-yl-pyridin-3-yl)-1,6-dihydro-pyrimidin-4-yl]-2-fluoro-benzonitrile]	< 100 nM
Cc1ccc(-c2c(-c3ccc(C#N)c(F)c3)nc(N3CCC(N)CC3)n(C)c2=O)cn1 [Example 9]	< 100 nM
Cn1c(N2CCC(N)CC2)nc(-c2ccc(C#N)c(F)c2)c(-c2ccc3c(c2)CNC3=O)c1=O [Example 42, 4-[2-(4-amino-piperidin-1-yl)-1-methyl-6-oxo-5-(1-oxo-2,3-dihydro-1H-isoindol-5-yl)-1,6-dihydro-pyrimidin-4-yl]-2-fluoro-benzonitrile]	< 100 nM
COc1ccc(-c2c(-c3ccc(C#N)c(F)c3)nc(N3CCC[C@H](N)C3)n(C)c2=O)cc1 [Example 31, 4-[2-((3S)-3-amino-piperidin-1-yl)-5-(4-methoxy-phenyl)-1-methyl-6-oxo-1,6-dihydro-pyrimidin-4-yl]-2-fluoro-benzonitrile]	< 100 nM
COc1ccc(-c2c(-c3ccc(C#N)c(F)c3)nc(N3CCC[C@@H](N)C3)n(C)c2=O)cc1 [Example 30, 4-[2-((3R)-3-aminopiperidyl)-5-(4-methoxyphenyl)-1-methyl-6-oxohydropyrimidin-4-yl]-2-fluorobenzenecarbonitrile]	< 100 nM

Further lines, results first:

IC50	SMILES
< 100 nM	Cn1c(N2CCC(N)CC2)nc(-c2ccc(C#N)c(F)c2)c(-c2ccc3occc3c2)c1=O [Example 18, 4-[2-(4-amino-piperidin-1-yl)-5-benzofuran-5-yl-1-methyl-6-oxo-1,6-dihydro-pyrimidin-4-yl]-2-fluoro-benzonitrile]
< 100 nM	CNc1ccc(-c2c(-c3ccc(C#N)c(F)c3)nc(N3CCC(N)CC3)n(C)c2=O)cc1 [Example 90, 4-[2-(4-aminopiperidin-1-yl)-1-methyl-5-[4-(methylamino)phenyl]-6-oxopyrimidin-4-yl]-2-fluorobenzonitrile]
< 100 nM	Cn1c(N2CCC(N)CC2)nc(-c2ccc(C#N)c(F)c2)c(-c2ccc(CCO)cc2)c1=O [Example 99, 4-[2-(4-aminopiperidin-1-yl)-5-[4-(2-hydroxyethyl)phenyl]-1-methyl-6-oxopyrimidin-4-yl]-2-fluorobenzonitrile]
< 100 nM	COc1ccc(-c2c(-c3ccc(C#N)c(F)c3)nc(N3CC[C@@H](N)[C@@H](F)C3)n(C)c2=O)cc1 [Example 78, 4-[2-((4R,3S)-4-amino-3-fluoro-piperidin-1-yl)-5-(4-methoxy-phenyl)-1-methyl-6-oxo-1,6-dihydro-pyrimidin-4-yl]-2-fluoro-benzonitrile]
< 100 nM	COc1ccc(-c2c(-c3ccc(C#N)c(F)c3)nc(N3CCC(N)CC3)n(C)c2=O)cn1 [Example 8, 4-[2-(4-amino-piperidin-1-yl)-5-(6-methoxy-pyridin-3-yl)-1-methyl-6-oxo-1,6-dihydro-pyrimidin-4-yl]-2-fluoro-benzonitrile]
< 100 nM	CN(C)C1CCN(c2nc(-c3ccc(C#N)c(F)c3)c(-c3ccc4c(cnn4C)c3)c(=O)n2C)CC1 [Example 72, 4-[2-(4-dimethylamino-piperidin-1-yl)-1-methyl-5-(1-methyl-1H-indazol-5-yl)-6-oxo-1,6-dihydro-pyrimidin-4-yl]-2-fluoro-benzonitrile]
< 100 nM	Cn1c(N2CCC(N)CC2)nc(-c2ccc(C#N)c(F)c2)c(-c2ccc3ccn(C)c3c2)c1=O [Example 76, 4-[2-(4-amino-piperidin-1-yl)-1-methyl-5-(1-methyl-1H-indol-6-yl)-6-oxo-1,6-dihydro-pyrimidin-4-yl]-2-fluoro-benzonitrile]
< 100 nM	CN(C)c1ncc(-c2c(-c3ccc(C#N)c(F)c3)nc(N3CCC(N(C)C)CC3)n(C)c2=O)cn1 [Example 81, 4-[2′-dimethylamino-2-(4-dimethylamino-piperidin-1-yl)-1-methyl-6-oxo-1,6-dihydro-[5,5′]bipyrimidinyl-4-yl]-2-fluoro-benzonitrile]
< 100 nM	Cn1c(N2CCC(N)CC2)nc(-c2ccc(C#N)c(F)c2)c(-c2cnn(CC(F)(F)F)c2)c1=O [Example 34, 4-{2-(4-amino-piperidin-1-yl)-1-methyl-6-oxo-5-[1-(2,2,2-trifluoro-ethyl)-1H-pyrazol-4-yl]-1,6-dihydro-pyrimidin-4-yl}-2-fluoro-benzonitrile]
< 100 nM	CNc1ccc(-c2c(-c3ccc(C#N)c(F)c3)nc(N3CCC(N)CC3)n(C)c2=O)cc1F [Example 91, 4-[2-(4-aminopiperidin-1-yl)-5-[3-fluoro-4-(methylamino)phenyl]-1-methyl-6-oxopyrimidin-4-yl]-2-fluorobenzonitrile]
< 100 nM	CNC1CCN(c2nc(-c3ccc(C#N)c(F)c3)c(-c3ccc4nn(C)cc4c3)c(=O)n2C)CC1 [Example 65, 2-fluoro-4-[1-methyl-2-(4-methylamino-piperidin-1-yl)-5-(2-methyl-2H-indazol-5-yl)-6-oxo-1,6-dihydro-pyrimidin-4-yl]-benzonitrile]
< 100 nM	COc1ccc(-c2c(-c3ccc(C#N)c(F)c3)nc(N(C)C[C@@H]3CCNC3)n(C)c2=O)cc1 (stereo in doubt) [Example 56, 2-fluoro-4-[5-(4-methoxy-phenyl)-1-methyl-2-(methyl-pyrrolidin-3-ylmethyl-amino)-6-oxo-1,6-dihydro-pyrimidin-4-yl]-benzonitrile]
